Source: the METLIN SMRT retention time set (Domingo-Almenara et al. 2019)

Assay: gradient 5% acetonitrile 3 min, to 50% in 2 min, to 85% in 15 min, held 3 min, 100 µL/min
Details: column: Zorbax Extend-C18 2.1 x 50 mm; eluents: water / acetonitrile, 0.1% formic acid
Outline: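 Retention time was recorded from adduct peaks, which were picked computationally and each inspected manually. Pure standards ran in mixtures of ~100 molecules on HPLC coupled to a quadrupole time-of-flight mass spectrometer, in positive and negative ionization mode, through a Zorbax Extend-C18 column (2.1 × 50 mm, 1.8 μm) at 100 μL/min. Eluents were water and acetonitrile, each with 0.1% formic acid.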

Row | RP-LC retention time | Structure (SMILES)
1 | 964 s | Cc1ccc2[nH]cc(CCNC(=O)c3c(-c4ccccn4)noc3C)c2c1
2 | 743 s | CCn1ccc(C(=O)NCc2c(-c3ccccc3)nc3sc(C)nn23)n1
3 | 1030 s | CCCS(=O)(=O)c1nc2ccc(NS(=O)(=O)c3c(C)cc(C)cc3C)cc2s1
4 | 646 s | Cc1nnc(NC(=O)c2ccc3c(c2)OCO3)s1
5 | 1050 s | CC(Oc1ccc(C(C)(C)C)cc1)C(=O)N(Cc1ccco1)C1CCS(=O)(=O)C1 (centres undefined)
6 | 738 s | CCCC(=O)OCC1OC(n2ccc(N)nc2=O)C(OC(=O)CCC)C1OC(=O)CCC (centres undefined)
7 | 822 s | CCOC(=O)c1ccc(NS(=O)(=O)c2cc(-c3c(CC)noc3NC(C)=O)ccc2C)cc1
8 | 635 s | O=C(CCCn1c(=O)c2cccn2c2ccc(F)cc21)N1CCN(c2ccccn2)CC1
9 | 653 s | C=CCNC(=O)Nc1nc(CSC)cs1
10 | 746 s | COCCN1C(=O)CCc2cc(NC(=O)c3ccccc3Br)ccc21
11 | 667 s | COc1ccc(-c2nnc3n2CCN(Cc2cccc(C#N)c2)C3)cc1
12 | 760 s | CN(C)CC/C=C1/c2ccccc2COc2ccccc21
13 | 856 s | CC1(C(=O)NCc2ccccc2)CN(S(C)(=O)=O)CC(=O)N1CCCc1ccccc1 (centres undefined)
14 | 641 s | Cc1cc2c(c(C#N)c1C)NC=NC2C (centres undefined)
15 | 718 s | CCc1onc(C)c1C1CCCN1C(=O)Cc1ccc(OC)c(OC)c1 (centres undefined)
16 | 870 s | COc1ccccc1Oc1c(NS(=O)(=O)c2ccc(C)cn2)nc(-c2ccncc2)nc1OC
17 | 900 s | CC(C)c1cc(-c2nnc3sc(COc4ccc(Cl)cc4)nn23)n[nH]1
18 | 674 s | CCC1CCCCN1C(=O)c1cnc2nc(C)ccc2c1Nc1cc(OC)cc(OC)c1 (centres undefined)
19 | 767 s | CC[C@H](C)NC(=O)Cc1nnc(-c2cccc(C)c2)o1
20 | 697 s | COc1cccc(-c2nc(CN3CCCC3=O)no2)c1
21 | 810 s | O=C(CSc1nc(N2CCCCC2)nc2ccccc12)Nc1ccc(Br)cc1
22 | 684 s | CSc1ncccc1C(=O)Nc1ccc2c(c1)CCC(=O)N2C

Row | RP-LC retention time | Structure (SMILES)
23 | 868 s | O=C(CSc1nnnn1-c1ccccc1)c1ccc2c(c1)OCCO2
24 | 799 s | CCOC(=O)c1noc2ncnc(Nc3cc(F)ccc3F)c12
25 | 721 s | O=C(Nc1nc(CCC(=O)N2CCn3c2nc2ccccc23)cs1)c1ccc(F)cc1
26 | 1100 s | CCc1nc2cc(-c3noc(-c4ccsc4)n3)ccc2o1
27 | 580 s | COCCNC(=O)C1CCN(c2cnc(N3CCCC3)nc2)CC1
28 | 631 s | CNC(=O)Nc1cccc(-c2ccc(OC)nn2)c1
29 | 805 s | Cc1ccsc1C(=O)Nc1cccn2c(C3CCC3)nnc12
30 | 1240 s | CCc1nc2cc(-c3noc(COc4cccc(Cl)c4)n3)ccc2o1
31 | 748 s | CCc1ccc(Nc2nc(C(=O)NCCOC)nc3ccccc23)cc1
32 | 723 s | COCc1nc2cccnc2n1C1CCN(C(=O)Nc2cc(Cl)c(OC)cc2OC)CC1
33 | 652 s | CC(=O)N1CCN(c2nc3c(s2)CC(C(=O)Nc2ccc(Cl)c(C)c2)CC3)CC1 (centres undefined)
34 | 733 s | CC(C)N1CCn2c(nc3cc(C(=O)NCc4cccc(Cl)c4)ccc32)C1=O
35 | 647 s | CC1Cc2ccccc2N1C(=O)Cc1csc(NC(=O)c2ccc(=O)[nH]c2)n1 (centres undefined)
36 | 742 s | CN(C)C(=O)C1c2ccccc2CCN1CC(=O)N1CCN(c2ccc(Cl)cc2)CC1 (centres undefined)
37 | 634 s | CC(C)CN1CCN(C(=O)CN2CCN(Cc3ccc(F)cc3Cl)C2=O)CC1
38 | 792 s | CCN(Cc1ccccc1)c1ccc(-c2noc(CN3CCCC(C)C3)n2)cn1 (centres undefined)
39 | 696 s | COc1ccccc1NC(=O)Cn1nc2c(N3CCCCCC3)nccn2c1=O
40 | 670 s | COCc1noc(C2CN(CCc3ccccc3)CC23CCCC3)n1 (centres undefined)
41 | 776 s | CC(C)(C)OC(=O)CN(c1ccc(F)cc1)S(=O)(=O)c1cccn2cnnc12
42 | 493 s | CCN(CC)CCNC(=S)Nc1ccc2nc(N3CCN(CC)CC3)cc(C)c2c1
43 | 900 s | CC(C)n1c(=O)sc2cc(S(=O)(=O)N3CCC(C(=O)N4CCCCC4)CC3)ccc21
44 | 871 s | COc1cc(C(=O)Nc2nnc(SCc3nnc(-c4ccccc4)o3)s2)cc(OC)c1OC

Row | RP-LC retention time | Structure (SMILES)
45 | 662 s | O=C(Cn1cnc2nc3c(cc2c1=O)CCCC3)NC1CCCCCC1
46 | 517 s | O=C(Nc1nc(C(=O)N2CCN(c3ccccn3)CC2)co1)c1cnccn1
47 | 778 s | Cc1cccc(C)c1NC(=O)C1CCCN1S(=O)(=O)c1cc2c(cc1Cl)NC(=O)CO2 (centres undefined)
48 | 686 s | Cc1ccc(CNC(=O)c2cn3cccc(C)c3n2)cc1
49 | 644 s | CN1C2CCC1CC(OC(=O)c1c[nH]c3ccccc13)C2 (centres undefined)
50 | 570 s | CCN1C(=O)c2cc(C(=O)NCc3ccc(N(C)C)cc3)nn2CC1(C)C(=O)NC1CCCC1 (centres undefined)
51 | 669 s | Cc1ccc(NC(=O)N2CCN(c3cc(C)nc(N4CCOCC4)n3)CC2)c(Cl)c1
52 | 856 s | CCN1c2cc(C(=O)NCc3ccc(SC)cc3)ccc2C(=O)N2CCCCC21 (centres undefined)
53 | 617 s | Cc1ccc(CNC(=O)c2ccc3ncnc(N4CCCC4)c3c2)o1
54 | 733 s | O=C(NCCn1cc(SCC(=O)N2CCOCC2)c2ccccc21)c1ccc(F)cc1
55 | 683 s | O=C(CSCc1ccccc1)NCCNC(=O)c1ccc(NC(=O)C2CC2)cc1
56 | 766 s | CC(=O)Nc1ccc(-c2noc(C3CCCN(C(=O)c4ccsc4)C3)n2)cc1 (centres undefined)
57 | 1060 s | CC(C)Cn1cc(S(=O)(=O)NC2CCCCCC2)c2cccnc21
58 | 964 s | C=CCN1C(=O)COc2ccc(-c3csc(NC(=O)C(C)(C)C)n3)cc21
59 | 903 s | O=C(Nc1ccc(C2(C(=O)NCc3ccc(F)c(Cl)c3)CCC2)cc1)C1CC1
60 | 1280 s | CCc1nc2cc(-c3noc(-c4ccccc4C)n3)ccc2o1
61 | 714 s | Cc1ccc(NC(=O)Cc2nnc(-c3cnccn3)o2)cc1F
62 | 923 s | O=C(Cn1nc2c3cc(-c4ccccc4)nn3ccn2c1=O)Nc1ccc(Br)cc1F
63 | 955 s | CC1CCN(c2nc(-c3ccc(Br)cc3)nc3ccccc23)CC1
64 | 770 s | Nc1c(C(=O)NCC2CC2)nsc1C(=O)O
65 | 612 s | O=C1CC(c2nc3ccccc3n2CCN2CCOCC2)CN1Cc1ccc(F)cc1 (centres undefined)
66 | 567 s | O=C(NCCc1ccccc1)C(=O)NCc1cccnc1

Row | Structure (SMILES) | RP-LC retention time
67 | Cn1c(CCCC(=O)O)nc2cc(N(CCCl)CCCl)ccc21 | 747 s
68 | COc1ccc2c(c1)C1(CCN(C(=O)c3ccccc3OC)C1)C(=O)N2C (centres undefined) | 725 s
69 | O=C(NCc1ccccc1)c1c(O)c2cccnc2n(Cc2ccccc2)c1=O | 1370 s
